According to patent publication US20070249639A1, “Use of 9H-Purine-2,6-Diamine Derivatives in the Treatment of Proliferative Diseases and Novel 9H-Purine-2,6-Diamine Derivatives” (priority 2004, published 2007):

Target: T1, human topoisomerase II α (Homo sapiens, UniProt P11388)
T1 construct: purchased Professor Neil Osheroff (Vanderbilt University, Nashville, Tenn., USA)
Experiment: Topoisomerase II ATPase assay (Malachite Green)
Assay type: biochemical
Settings: for inhibition at 10 µM: Percent inhibition @10 μM, Malachite Green assay, read-out: TOPO II inh. (inhibition of the TOPO ATPase activity)
Experimental: The inhibition of topoisomerase II is measured as follows:
Purified human topoisomerase II α was purchased from Professor Neil Osheroff (Vanderbilt University—Nashville, Tenn., USA).
The pUC18 (Stratagene) plasmid was introduced into Escherichia coil XL-1 (Stratagene) and purified with the HiSpeed Plasmid Purification kit (Qiagen) according to the manufacturer instructions. The purity of the DNA preparations was evaluated spectrophotometrically (OD260/OD280 ratio) and by agarose gel.
Preparation of the Malachite Green Reagent:
Three volumes of 0.045% malachite green (Sigma, catalog no. M-9636) diluted in water are mixed for 20 min at room temperature with one volume of 4.2% ammonium molybdate (Axon Lab AG, catalog no. A-2246) diluted in 4 N HCl. After mixing, Triton X-100 (Merck, catalog no. 1.12298) is added to a final concentration of 0.01%. The solution is filtered at 0.2 μm and stored at room temperature in the dark.
ATP hydrolysis was monitored by measuring the production of inorganic phosphate released during the catalytic cycle of topoisomerase II α with acidic molybdate and malachite green (Lanzetta,et al., An improved assay for nanomole amounts of inorganic phosphate, Anal Biochem 1979;100:95-7). Briefly, human topoisomerase II α is pre-incubated at 37° C. for 10 min in 90 μl reaction buffer (10 mM Tris.HCl pH 7.9, 175 mM KCl, 1 mM EDTA, 2 mM DTT, 5 mM MgCl2, 2.5% glycerol) in the presence of the indicated amount of pUC18 and DMSO in F96 maxisorp Nunclmmuno plates (Nunc). The reaction is initiated by the addition of 10 μl ATP at the indicated concentrations and is carried out for 30 min at 37° C. under constant agitation. The reaction is stopped by the addition of 200 μl molybdate/malachite green solution and the absorbance is immediately measured at 630 nm. The OD630 value is measured in the absence of protein for each ATP concentration (background) is subtracted from the value obtained in the presence of enzyme. A standard curve with inorganic phosphate is used to determine the amount of inorganic phosphate produced during the reaction and to ensure that the measures are in the linear range of the assay. The kinetic parameters of the enzymes are determined from measurements (at least in duplicate) of the initial rates at different ATP concentrations. The data are analyzed with GraFit (Erithacus Software).
The compounds are tested at 10 μM of concentration to determine their inhibition potential given % of inhibition of the TOPO II ATPase activity.
For the determination of the IC50, the procedure is repeated for different concentrations of test compound selected to cover the range of 0% to 100% inhibition and the concentration at which 50% inhibition of topoisomerase II occurs (IC50) for each compound is determined from concentration-inhibition curves in a conventional manner.

T1 sequence (P11388 whole entry): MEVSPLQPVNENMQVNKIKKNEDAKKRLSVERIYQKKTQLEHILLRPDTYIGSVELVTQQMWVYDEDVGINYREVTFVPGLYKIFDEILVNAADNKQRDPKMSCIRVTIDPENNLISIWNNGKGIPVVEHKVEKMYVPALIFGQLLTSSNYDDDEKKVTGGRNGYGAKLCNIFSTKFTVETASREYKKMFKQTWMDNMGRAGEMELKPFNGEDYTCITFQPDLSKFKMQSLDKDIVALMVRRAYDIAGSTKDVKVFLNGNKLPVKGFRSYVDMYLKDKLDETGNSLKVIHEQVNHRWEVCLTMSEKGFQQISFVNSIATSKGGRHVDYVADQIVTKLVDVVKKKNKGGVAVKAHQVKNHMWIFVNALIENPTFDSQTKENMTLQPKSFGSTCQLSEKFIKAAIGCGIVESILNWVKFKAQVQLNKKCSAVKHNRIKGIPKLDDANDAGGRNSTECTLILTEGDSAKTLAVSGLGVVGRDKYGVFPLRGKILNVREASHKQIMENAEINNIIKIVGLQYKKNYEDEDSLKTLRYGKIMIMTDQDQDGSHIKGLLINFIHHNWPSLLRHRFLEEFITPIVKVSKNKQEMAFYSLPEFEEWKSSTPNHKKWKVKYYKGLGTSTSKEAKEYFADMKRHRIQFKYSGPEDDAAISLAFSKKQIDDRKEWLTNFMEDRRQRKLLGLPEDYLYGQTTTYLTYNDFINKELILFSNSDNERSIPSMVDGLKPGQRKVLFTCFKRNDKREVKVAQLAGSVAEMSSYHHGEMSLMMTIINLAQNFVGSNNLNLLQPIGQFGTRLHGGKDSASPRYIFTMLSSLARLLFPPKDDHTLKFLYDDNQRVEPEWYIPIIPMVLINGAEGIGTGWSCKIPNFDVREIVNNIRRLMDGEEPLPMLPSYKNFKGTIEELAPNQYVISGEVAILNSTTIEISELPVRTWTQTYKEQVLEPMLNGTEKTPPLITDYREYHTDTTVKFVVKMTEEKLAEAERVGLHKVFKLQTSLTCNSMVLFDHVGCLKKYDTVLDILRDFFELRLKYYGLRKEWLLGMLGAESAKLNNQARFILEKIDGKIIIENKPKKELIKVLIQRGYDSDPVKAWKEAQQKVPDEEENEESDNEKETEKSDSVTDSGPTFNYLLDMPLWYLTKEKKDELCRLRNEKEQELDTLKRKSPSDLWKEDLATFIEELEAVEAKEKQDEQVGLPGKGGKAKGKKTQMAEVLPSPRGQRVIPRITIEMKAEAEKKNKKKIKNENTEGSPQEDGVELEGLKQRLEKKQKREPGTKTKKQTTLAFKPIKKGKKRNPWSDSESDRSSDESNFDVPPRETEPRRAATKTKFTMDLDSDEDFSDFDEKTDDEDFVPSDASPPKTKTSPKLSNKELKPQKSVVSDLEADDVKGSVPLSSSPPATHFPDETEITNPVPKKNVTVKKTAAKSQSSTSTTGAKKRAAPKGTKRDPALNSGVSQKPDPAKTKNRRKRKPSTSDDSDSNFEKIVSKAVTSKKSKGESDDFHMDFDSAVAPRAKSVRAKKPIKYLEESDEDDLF

inhibition at 10 µM | IC50 | ATP competitive inhibitor activity (OD measured at 630 nm) | SMILES
< 50% |  |  | Cc1nc2ccc(Nc3nc(N4CCN(c5ccccn5)CC4)c4nc[nH]c4n3)cc2s1 [Example 63, (2-Methyl-benzothiazol-6-yl)-[6-(4-pyridin-2-yl-piperazin-1-yl)-9H-purin-2-yl]-amine]
50 to 65% |  |  | Cc1nc2ccc(Nc3nc(NC4CCCCCC4)c4nc[nH]c4n3)cc2s1 [Example 50, N*6*-Cycloheptyl-N*2*-(2-methyl-benzothiazol-6-yl)-9H-purine-2,6-diamine]
< 50% |  |  | c1ccc(N2CCN(c3nc(Nc4ccc5ncccc5c4)nc4[nH]cnc34)CC2)nc1 [Example 61, [6-(4-Pyridin-2-yl-piperazin-1-yl)-9H-purin-2-yl]-quinolin-6-yl-amine]
< 50% |  |  | c1nc2c(NC3CCCCCC3)nc(Nc3ccc4ncsc4c3)nc2[nH]1 [Example 66, N*2*-Benzothiazol-6-yl-N*6*-cycloheptyl-9H-purine-2,6-diamine]
< 50% |  |  | c1ccc(N2CCN(c3nc(Nc4ccc5nsnc5c4)nc4[nH]cnc34)CC2)nc1 [Example 62, Benzo[1,2,5]thiadiazol-5-yl-[6-(4-pyridin-2-yl-piperazin-1-yl)-9H-purin-2-yl]-amine]
< 50% |  |  | CC(C)Cc1nc2c(NC(C)(C)C)nc(Nc3ccc4ccccc4c3)nc2[nH]1 [Example 74, N*6*-tert-Butyl-8-isobutyl-N*2*-naphthalen-2-yl-9H-purine-2,6-diamine]
< 50% |  |  | c1ccc(N2CCN(c3nc(Nc4ccc5ncsc5c4)nc4[nH]cnc34)CC2)nc1 [Example 60, Benzothiazol-6-yl-[6-(4-pyridin-2-yl-piperazin-1-yl)-9H-purin-2-yl]-amine]
< 50% |  |  | CCC(C)(C)Nc1nc(Nc2ccc3ncccc3c2)nc2[nH]cnc12 [Example 52, N*6*-(1,1-Dimethyl-propyl)-N*2*-quinolin-6-yl-9H-purine-2,6-diamine]
50 to 65% |  |  | CC(C)(C)Nc1nc(Nc2ccc3ncccc3c2)nc2[nH]cnc12 [Example 46, N*6*-tert-Butyl-N*2*-quinolin-6-yl-9H-purine-2,6-diamine]
< 50% |  |  | C=CCc1nc2c(NC(C)(C)C)nc(Nc3ccc4ccccc4c3)nc2[nH]1 [Example 71, 8-Allyl-N*6*-tert-butyl-N*2*-naphthalen-2-yl-9H-purine-2,6-diamine]
< 50% |  |  | CC(C)(CO)Nc1nc(Nc2ccc3ncsc3c2)nc2[nH]cnc12 [Example 68, 2-[2-(Benzothiazol-6-ylamino)-9H-purin-6-ylamino]-2-methyl-propan-1-ol]
< 50% |  |  | CCC(C)(C)Nc1nc(Nc2ccc3nsnc3c2)nc2[nH]cnc12 [Example 53, N*2*-Benzo[1,2,5]thiadiazol-5-yl-N*6*-(1,1-dimethyl-propyl)-9H-purine-2,6-diamine]
< 50% |  |  | c1cnc2ccc(Nc3nc(N4CCN(c5cnccn5)CC4)c4nc[nH]c4n3)cc2c1 [Example 64, Quinolin-6-yl-[6-(2,3,5,6-tetrahydro-[1,2′]bipyrazinyl-4-yl)-9H-purin-2-yl]-amine]
< 50% |  |  | Cc1nc2ccc(Nc3nc(NC(C)(C)Cc4ccc(F)cc4)c4nc[nH]c4n3)cc2s1 [Example 58, N*6*-[2-(4-Fluoro-phenyl)-1,1-dimethyl-ethyl]-N*2*-(2-methyl-benzothiazol-6-yl)-9H-purine-2,6-diamine]

Second part, the compound before the results:

SMILES | inhibition at 10 µM | IC50 | ATP competitive inhibitor activity (OD measured at 630 nm)
CC(=O)c1nc2c(NC(C)(C)C)nc(Nc3ccc4ncsc4c3)nc2[nH]1 [Example 45, 1-[2-(Benzothiazol-6-ylamino)-6-tert-butylamino-9H-purin-8-yl]-ethanone] | < 50% |  | 
c1csc(-c2ccc(Nc3nc(NC4CCCCCC4)c4nc[nH]c4n3)cc2)n1 [Example 2, N*6*-Cycloheptyl-N*2*-(4-thiazol-2-yl-phenyl)-9H-purine-2,6-diamine] | < 50% |  | 
Cc1ccc2cc(Nc3nc(NC(C)(C)C)c4nc[nH]c4n3)ccc2n1 [Example 16, N*6*-tert-Butyl-N*2*-(2-methyl-quinolin-6-yl)-9H-purine-2,6-diamine] | 50 to 65% |  | 
CC(C)(C)Nc1nc(Nc2ccc3cc(OCCN4CCOCC4)ccc3c2)nc2[nH]cnc12 [Example 22, N*6*-tert-Butyl-N*2*-[6-(2-morpholin-4-yl-ethoxy)-naphthalen-2-yl]-9H-purine-2,6-diamine] | ≥ 80% | 1.8 µM | 
C=C(C=Cc1nc(OCCN2CCOCC2)sc1C)Nc1nc(NC(C)(C)C)c2nc(C3CC3)[nH]c2n1 [Example 39, N*6*-tert-Butyl-8-cyclopropyl-N*2*-{1-methylene-3-[5-methyl-2-(2-morpholin-4-yl-ethoxy)-thiazol-4-yl]-allyl}-9H-purine-2,6-diamine] | 65 to 80% |  | 
c1nc2c(NC3CCCCCCC3)nc(Nc3ccc4ncsc4c3)nc2[nH]1 [Example 7, N*2*-Benzothiazol-6-yl-N*6*-cyclooctyl-9H-purine-2,6-diamine] | 50 to 65% |  | 
CCc1nc2c(NC(C)CC(N)=O)nc(Nc3ccc4ncsc4c3)nc2[nH]1 (stereo not drawn) [Example 30, 3-[2-(Benzothiazol-6-ylamino)-8-ethyl-9H-purin-6-ylamino]-butyramide] | 0% |  | 
c1ccc(Nc2nc(Nc3ccc4ncccc4c3)nc3[nH]cnc23)cc1 [Example 12, N*6*-Phenyl-N*2*-quinolin-6-yl-9H-purine-2,6-diamine] | 50 to 65% |  | 
CC(C)(C)Nc1nc(Nc2ccc3ccccc3c2)nc2[nH]c(N)nc12 [Example 43, N*6*-tert-Butyl-N*2*-naphthalen-2-yl-9H-purine-2,6,8-triamine] | 65 to 80% |  | 
c1nc2c(NC3CCCCCC3)nc(Nc3ccc4ncsc4c3)nc2[nH]1 [Example 1, N*2*-Benzothiazol-6-yl-N*6*-cycloheptyl-9H-purine-2,6-diamine] |  | 8.4 µM | ATP competitive inhibitor
CNc1nc2c(NC(C)(C)C)nc(Nc3ccc4ccccc4c3)nc2[nH]1 [Example 44, N*6*-tert-Butyl-N*8*-methyl-N*2*-naphthalen-2-yl-9H-purine-2,6,8-triamine] | 65 to 80% |  | 
CCCc1nc2c(NC(C)(C)C)nc(Nc3ccc4ncsc4c3)nc2[nH]1 [Example 32, N*2*-Benzothiazol-6-yl-N*6*-tert-butyl-8-propyl-9H-purine-2,6-diamine] | < 50% |  | 
CC(C)(C)Nc1nc(Nc2ccc3nc(C(C)(C)C)sc3c2)nc2[nH]cnc12 [Example 18, N*6*-tert-Butyl-N*2*-(2-tert-butyl-benzothiazol-6-yl)-9H-purine-2,6-diamine] | 65 to 80% |  | 
CCc1nc2c(NC(C)(C)C)nc(Nc3ccc4oc(=O)ccc4c3)nc2[nH]1 [Example 35, 6-(6-tert-Butylamino-8-ethyl-9H-purin-2-ylamino)-chromen-2-one] | 65 to 80% | 2.8 µM | 
c1ccc(C(Nc2nc(Nc3ccc4ncsc4c3)nc3[nH]cnc23)c2ccccc2)cc1 [Example 11, N*6*-Benzhydryl-N*2*-benzothiazol-6-yl-9H-purine-2,6-diamine] | < 50% |  | 
CCc1nc2c(NC(C)(C)C)nc(Nc3ccc4nc(SC)sc4c3)nc2[nH]1 [Example 36, N*6*-tert-Butyl-8-ethyl-N*2*-(2-methylsulfanyl-benzothiazol-6-yl)-9H-purine-2,6-diamine] | ≥ 80% | 0.9 µM | 
C=C(C=Cc1nc(OCCN2CCOCC2)sc1C)Nc1nc(NC(C)(C)C)c2nc(C(C)C)[nH]c2n1 [Example 38, N*6*-tert-Butyl-8-isopropyl-N*2*-{1-methylene-3-[5-methyl-2-(2-morpholin-4-yl-ethoxy)-thiazol-4-yl]-allyl}-9H-purine-2,6-diamine] | < 50% |  | 
CCOC(=O)CC(C)Nc1nc(Nc2ccc3ncsc3c2)nc2[nH]c(CC)nc12 (stereo not drawn) [Example 31, 3-[2-(Benzothiazol-6-ylamino)-8-ethyl-9H-purin-6-ylamino]-butyric acid ethyl ester] | < 50% |  | 
CC(C)(C)Nc1nc(Nc2ccc3ccccc3c2)nc2[nH]cnc12 [Example 15, N*6*-tert-Butyl-N*2*-naphthalen-2-yl-9H-purine-2,6-diamine] | 65 to 80% | 3.3 µM | 
CCc1nc2c(N3CCCC3C)nc(Nc3ccc4ncsc4c3)nc2[nH]1 (stereo not drawn) [Example 29, Benzothiazol-6-yl-[8-ethyl-6-(2-methyl-pyrrolidin-1-yl)-9H-purin-2-yl]-amine] | < 50% |  | 
